Here are results for 68 substances from US20260234188A1, “CHEMOKINE-BINDING PEPTIDES” (Oxford University Innovation Limited, priority 2022, published 2026).

Entries after “also recorded” stand apart in the source; their conditions may differ.

The first assay deals with panel of up to 42 human chemokines. The assay can be described thus: Phage-display next generation sequencing screen of overlapping hexadecapeptide libraries, chemokines displayed on streptavidin beads. The class given is binding. To be noted: log2E greater than 5, chemokines named by first part of UniProt Entry Name. In short, it runs like this: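 Phage-display libraries of 55662 overlapping hexadecapeptides from tick and viral chemokine-binding proteins, human chemokines and chemokine receptors screened against up to 42 human chemokines, with hits found by next-generation sequencing. Peptides mapped to parent-protein position with log2 fold enrichment; regions of interest where cumulative residue log2 E exceeds the 95% upper CI of the protein median.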
Consider CR23002 (TIWLVGFLLALPEILF), for which the “Chemokines Bound” value is “CCL17, CCL18, and CCL19, CCL20, and CCL25, CCL28, and X3CL1, SDF1, and CXL13, CXL14, and IL8”. Consider CR23111 (TLFASDFVLMWAVFFM), for which the “Chemokines Bound” value is recorded as “CCL15, CCL17,; also recorded: CCL20, CCL25,; also recorded: CXL14”.

For the substance CR23112 (TLFASDFVLMWCVFFM), the “Chemokines Bound” value was “CCL17, CCL19,; also recorded: CCL20, CCL22,; also recorded: CCL8, X3CL1”. The same measure, in the same setting: then CR23240 (TLPFWGISVAWHWVFG), with “CCL17, CCL18,; also recorded: CCL20, X3CL1,; also recorded: CXL11”; and CR23379 (TNFDFMILNLSFADLF), with “CCL17, CCL18,; also recorded: X3CL1”.

In the case of CR23443 (TNWKLLAEIYEYLFFF), the “Chemokines Bound” value is “CCL17, CCL18,; also recorded: X3CL1, CXL10,; also recorded: CXL13”. Take CR23572 (TRFGVWLMSIVGTFLN): the “Chemokines Bound” value is recorded as “CCL17, CCL18,; also recorded: CCL2, CCL20,; also recorded: CCL22, CCL25,; also recorded: X3CL1, IL8”. With CR23587 (TRLGVWLMAIVGTFLN), the “Chemokines Bound” value was “CCL18, CCL20,; also recorded: CCL22”. On the same count and under the same terms, then CR23773 (TSVITWLVAVFASVPG), with “CCL1, CCL18, and CCL2, CCL20, and CCL8”.

Take CR23880 (TTVILILAFFASWLPY): the “Chemokines Bound” value is given as “CCL1, CCL18,; also recorded: CCL20, CCL25,; also recorded: CCL28, SDF1,; also recorded: CXL14”.

The same assay, now with this note: log2E greater than 5, chemokines named by first part of UniProt entry name, C5a (control) binders excluded.
As to CR14585 (LTLKVILGFFLPFVVM), the “Chemokines Bound” value was “CCL17, CCL18,; also recorded: CCL19, CCL20,; also recorded: CXL14”.

For CR14752 (LVFIFGFVGNMLVVLI), the “Chemokines Bound” value is listed as “CCL17, CCL25,; also recorded: CXL10”. On the same count and under the same terms, next, CR14765 (LVFLLSLVGNSLVLWV): “CCL2, CCL28,; also recorded: CXL10, IL8”; CR14780 (LVFVIGLVGNILVVLV): “CCL17, CCL18,; also recorded: CCL19, CCL20,; also recorded: CCL22, CCL25,; also recorded: CCL28, X3CL1,; also recorded: CXL10, CXL14”; CR14849 (LVLGLLLNSLALWVFC): “CCL17, CCL19, and CCL20, CCL28, and SDF1”.

Take CR14850 (LVLGLLLNSLALWVFS): the “Chemokines Bound” value is “CCL22, CCL28,; also recorded: CXL10, CXL11,; also recorded: SDF1, CXL14”.

As for CR14974 (LVTLPFWGISVAWHWV), the “Chemokines Bound” value is listed as “CCL18, CCL25,; also recorded: CCL28”.

For CR14976 (LVTMAVWVASILSSIL), the “Chemokines Bound” value is given as “CCL2, SDF1,; also recorded: CXL13”. CR15063 (LWVVVFQFQHIMVGLI): the “Chemokines Bound” value was “CCL17, CCL18, and CCL19, CCL2, and CCL20, CCL22, and CCL28, CCL8, and X3CL1, CXL10, and CXL11, SDF1, and CXL13, CXL14, and IL8”. On the same count and under the same terms, next, CR15077 (LYAHLAAAFLWVVVAV): “CCL18, CCL19,; also recorded: CCL20, CCL22,; also recorded: CCL25, CCL28,; also recorded: CXL10, CXL11,; also recorded: SDF1, IL8”; CR15079 (LYAHLASAFLWVVVAV): “CCL17, CCL18,; also recorded: CCL20, CCL22,; also recorded: CCL28, X3CL1,; also recorded: CXL10, CXL11,; also recorded: SDF1, CXL13,; also recorded: CXL14, IL8”; CR15153 (LYSLLFLLGLLGNGAV): “CCL18, CCL22,; also recorded: CCL25”.

For the substance CR15502 (MIFTWNLVLSQFFSIL), the “Chemokines Bound” value was “CCL11, CCL17,; also recorded: CCL18, CCL19,; also recorded: CCL20, CCL22,; also recorded: CCL25, CCL28,; also recorded: CCL8, X3CL1,; also recorded: CXL10, CXL11,; also recorded: SDF1, CXL13,; also recorded: CXL14, IL8”. CR15670 (MMTWFYAFFYSTVQRA): the “Chemokines Bound” value is “CCL18, CCL2, and CCL20, CCL25, and CCL28, CCL8, and X3CL1, CXL13, and IL8”. Same read-out and setting: then CR15801 (MSFFSGMLLLLCISID), with “CCL18, CCL20, and SDF1”; and CR15915 (MVFSFFYVIFAKALHD), with “CCL1, CCL18,; also recorded: CCL19, CCL20”. Turning to CR15917 (MVFSFFYVIFSKALHD), the “Chemokines Bound” value is “CCL19, X3CL1,; also recorded: SDF1, CXL13”.

On to CR15930 (MVIWVLAFFLSSPSLV), for which the “Chemokines Bound” value is given as “CCL28, CXL10,; also recorded: CXL14”. Same read-out and setting: then CR15967 (MVWANLLVFVVSFLPL), with “CCL1, CXL10, and SDF1”; and CR16988 (NVTFTGLIAAFSWFML), with “CCL17, CCL18,; also recorded: CCL20, CCL22,; also recorded: CCL25, CCL28,; also recorded: CXL10, SDF1,; also recorded: CXL14”. For CR17126 (PCGIITSVLAWVTAIL), the “Chemokines Bound” value is on record as “CCL1, CCL20,; also recorded: CCL22, CCL28,; also recorded: X3CL1, CXL10,; also recorded: CXL11, SDF1,; also recorded: CXL14, IL8”.

With CR17298 (PGPWMNILWAWFIFWW), the “Chemokines Bound” value was “CCL1, CCL17,; also recorded: CCL18, CCL19,; also recorded: CCL20, CCL28,; also recorded: CXL10, CXL14”. The same measure, in the same setting: next, CR17781 (PSWIISFSVWMAAILL): “CCL17, CCL18, and CCL19, CCL2, and CCL20, CCL22, and CCL25, CCL28, and X3CL1, CXL10, and CXL11, SDF1, and CXL13, CXL14, and IL8”; CR17907 (PYHWGWVLGDFLAKLL): “CCL17, CCL18,; also recorded: CCL25”. Same read-out and setting: then CR18189 (QHNLFFLLSLGIILFC), with “CCL17, CCL18,; also recorded: CCL22, CCL25,; also recorded: X3CL1, CXL14”; and CR18714 (QYLKAFLAAVLGWHLA), with “CCL18, CCL28,; also recorded: CXL13, CXL14”; and CR18933 (RFGVWLMSIVGTFLNM), with “CCL28, CXL10, and IL8”. The same measure, in the same setting: then CR18955 (RFRQYLKAFLAAVLGW), with “CCL17, CCL18,; also recorded: CXL14”; and CR19192 (RLGVWLMSIVGTFLNV), with “CCL1, CCL17,; also recorded: CCL2, CCL25,; also recorded: X3CL1, CXL11”; and CR19824 (RVTLTALAVWGLALLF), with “CCL2, CCL22,; also recorded: CCL25, CXL10,; also recorded: CXL11, SDF1,; also recorded: CXL14, IL8”.

CR19826 (RVTLTSLAVWGLSLLF): the “Chemokines Bound” value is recorded as “CCL17, CCL2,; also recorded: X3CL1, CXL14”. Still for that read-out and setting: next, CR20068 (SAVLTLKVILGFFLPF): “CCL17, CCL18,; also recorded: CCL20, CCL25,; also recorded: CCL28, CXL11”. With CR20273 (SESALAFIYVLMFLCN), the “Chemokines Bound” value was “CCL18, CCL19,; also recorded: CCL20, CXL14”. On the same count and under the same terms, then CR20429 (SFYISLFAGVSFLINL), with “CCL22, CCL25,; also recorded: CXL10, CXL11”; and CR20433 VP8386 (SFYVAMFASLSFITEI), with “CCL1, X3CL1, and CXL10, CXL11, and IL8”; and CR20481 (SGIFFIILLTIDRYLA), with “CCL1, CCL19,; also recorded: CCL20, CCL22,; also recorded: CCL25, CCL28,; also recorded: X3CL1, CXL10,; also recorded: CXL11, SDF1”.

For “CR20486: chemokine binding peptide of Table 5A used in FIG. 5 combinations (SGIITSVLAWVTAILA)”, the “Chemokines Bound” value is “CCL11, CCL2,; also recorded: CCL8, IL8”. As for CR20557 (SGYDMWLMLVYSVMIP), the “Chemokines Bound” value is “CCL1, CCL15,; also recorded: CCL25”. Still for that read-out and setting: then CR20660 (SIILMFLSDFSFIFSS), with “CCL25, CXL13, and IL8”; and CR20762 (SIYLLNLAISDLLFLF), with “CCL22, CCL28,; also recorded: CXL10, CXL11,; also recorded: SDF1, CXL13,; also recorded: CXL14, IL8”. Same read-out and setting: next, CR20939 (SLCLSISLLAEVLMFL): “CCL1, CCL18,; also recorded: CCL19, X3CL1”; CR20965 (SLFAALVTLITSLFGS): “CCL11, CCL17,; also recorded: CCL18, CCL19,; also recorded: CCL2, CCL20,; also recorded: CCL28, X3CL1,; also recorded: CXL10, CXL11,; also recorded: CXL14, IL8”; CR20981 (SLFSALVTLITSLFGS): “CCL1, CCL11,; also recorded: CCL17, CCL18,; also recorded: CCL2, CCL25,; also recorded: CCL8, X3CL1,; also recorded: CXL10, IL8”. Still for that read-out and setting: then CR21134 (SLSISLLAEVLMFLFP), with “CCL17, CCL18, and CCL2, CCL25, and CCL28, X3CL1, and CXL10, CXL11, and SDF1, CXL14, and IL8”; and CR21168 (SLVFIFGFVGNMLVIL), with “CCL1, CCL22,; also recorded: CCL28, CXL10,; also recorded: CXL13, CXL14”. For the substance CR21236 (SMILESLFAALVTLIT), the “Chemokines Bound” value is listed as “CCL22, CXL10,; also recorded: CXL11, SDF1,; also recorded: CXL13, IL8”. As for “CR21238: chemokine binding peptide of Table 5A used in FIG. 5 combinations (SMILESLFSALVTLIT)”, the “Chemokines Bound” value is “CCL2, CXL11, and IL8”.

Regarding CR21284 (SMVIWVLAFFLSSPSL), the “Chemokines Bound” value is “CCL1, CCL18,; also recorded: CCL20”. The same measure, in the same setting: then “CR21349: chemokine binding peptide of Table 5A used in FIG. 5 combinations (SNVTFTGLISAFSWFM)”, with “CCL11, CCL2,; also recorded: CCL3, CCL4,; also recorded: CCL5, CCL8”; and CR22218 (SVSLVNLLTIIGCLWV), with “CCL19, X3CL1,; also recorded: CXL13”. Same read-out and setting: next, CR22271 (SWIISFSVWMAAILLS): “CCL1, CCL17,; also recorded: CXL10”; CR22272 (SWKVLLTLVWGAAPVI): “CCL17, CCL18,; also recorded: CCL20, CCL22,; also recorded: CCL25, CCL28,; also recorded: X3CL1, CXL10,; also recorded: CXL11, SDF1,; also recorded: CXL14, IL8”; CR22363 (SYRSTYIILLLTWFAG): “CCL18, X3CL1,; also recorded: CXL10”.

In the case of CR22658 (TENFEYDDLAEACYIG), the “Chemokines Bound” value was “CCL17, CCL18,; also recorded: X3CL1”. On the same count and under the same terms, next, CR22736 (TFGVVTSVITWLVAVF): “CCL1, CCL11, and CCL17, CCL18, and CCL2, CCL25, and CCL28, CCL8, and X3CL1, CXL10, and CXL11, SDF1, and CXL13, CXL14, and IL8”; CR22747 (TFKILICIVWGVMPVV): “CCL1, CCL17,; also recorded: CCL18, CCL20,; also recorded: CCL22, CCL28,; also recorded: X3CL1, CXL10,; also recorded: SDF1, CXL13,; also recorded: CXL14”. On the same count and under the same terms, next, CR22748 (TFKILISIVWGVMPVV): “CCL17, CCL18,; also recorded: CCL19, CCL20,; also recorded: CCL22, CCL28,; also recorded: X3CL1, CXL10,; also recorded: CXL11, SDF1,; also recorded: CXL14, IL8”. Same read-out and setting: then CR22786 (TFTGLIAAFSWFMLSL), with “CCL11, CCL17,; also recorded: CCL18, CCL2,; also recorded: CCL20, CCL22,; also recorded: CCL28, X3CL1,; also recorded: SDF1, IL8”.
